# What was measured:
# [1] = test system: ivyleaf morningglory (Ipomoea hederecea); experiment: Post-emergent Test I herbicidal activity; type: in vivo
# Protocol: Post-emergent Test I Seeds test species were obtained from commercial suppliers and planted into a 5″-round pot containing soil-less media mix (metro-mix 360®, Sun Gro Horticulture). Postemergence treatments were planted 8-12 days prior to application and cultured in a greenhouse equipped with supplemental light sources to provide a 16 h photoperiod at 24-29° C. All pots were surface irrigated. Approximately 10 milligrams (mg) of each compound were dissolved in 1.3 mL acetone-DMSO (97:3, v/v) and diluted with 4.1 mL water-isopropanol-crop oil concentrate (78:20:2, v/v/v) containing 0.02% Triton X-155. Treatments were serial diluted with the above formulation solvent to provide 1.85, 0.926, 0.462 and 0.231 mg/mL of test compound delivered in 2.7 mL/pot (roughly equivalent to 4.0, 2.0, 1.0, and 0.5 kg/ha, respectively). Formulated compounds were applied using a DeVilbiss® compressed air sprayer at 2-4 psi. Following treatment, pots were returned to the greenhouse for the duration of the experiment. All pots were sub-irrigated as need to provide optimum growing conditions. All pots were fertilized one time per week by subirrigating with Peters Peat-Lite Special® fertilizer (20-10-20). Phytotoxicity ratings were obtained 10 days after treatment postemergence applications. All evaluations were made visually on a scale of 0 to 100 where 0 represents no activity and 100 represents complete plant death. Visual assessments of plant injury were made based on growth reduction, discoloration, leaf deformity and necrosis
# [2] = test system: Wheat and Barley and test plant species; experiment: Post-emergent Test III, herbicidal activity in wheat and barley (Table 17; visual injury, GR20/GR50/GR80/GR90); type: in vivo; conditions: 21 d; for Visual Growth Reduction (%) 21 Days After Application, CIRAR / Visual Growth Reduction (%) 21 Days After Application, GALAP / Visual Growth Reduction (%) 21 Days After Application, HORVS / Visual Growth Reduction (%) 21 Days After Application, KCHSC / Visual Growth Reduction (%) 21 Days After Application, LAMPU / Visual Growth Reduction (%) 21 Days After Application, MATCH / Visual Growth Reduction (%) 21 Days After Application, PAPRH / Visual Growth Reduction (%) 21 Days After Application, SASKR / Visual Growth Reduction (%) 21 Days After Application, SINAR / Visual Growth Reduction (%) 21 Days After Application, TRZAS / Visual Growth Reduction (%) 21 Days After Application, VERPE / Visual Growth Reduction (%) 21 Days After Application, VIOTR: post-emergent
# Protocol: Post-emergent Test III. Seeds of the desired test plant species were planted in Sun Gro MetroMix® 306 planting mixture, which typically has a pH of 6.0 to 6.8 and an organic matter content of about 30 percent, in plastic pots with a surface area of 103.2 square centimeters (cm^2). When required to ensure good germination and healthy plants, a fungicide treatment and/or other chemical or physical treatment was applied. The plants were grown for 7-36 days (d) in a greenhouse with an approximate 14 hour (h) photoperiod which was maintained at about 18° C. during the day and 17° C. during the night. Nutrients and water were added on a regular basis and supplemental lighting was provided with overhead metal halide 1000-Watt lamps as necessary. The plants were employed for testing when they reached the second or third true leaf stage.
# A weighed amount, determined by the highest rate to be tested, of each test compound was placed in a 25 mL glass vial and was dissolved in 4 mL of a 97:3 v/v mixture of acetone and DMSO to obtain concentrated stock solutions. […] The concentrated stock solutions obtained were diluted with 20 mL of an aqueous mixture containing acetone, water, isopropyl alcohol, DMSO, Agri-Dex crop oil concentrate, and X-77 surfactant in a 48:39:10:1.5:1.5:0.02 v/v ratio to obtain spray solutions containing the highest application rates. Additional application rates were obtained by serial dilution of 12 mL of the high rate solution into a solution containing 2 mL of 97:3 v/v mixture of acetone and DMSO and 10 mL of an aqueous mixture containing acetone, water, isopropyl alcohol, DMSO, Agri-Dex crop oil concentrate, and X-77 surfactant in a 48:39:10:1.5:1.5:0.02 v/v ratio to obtain 1/2×, 1/4×, 1/8× and 1/16× rates of the high rate. Compound requirements are based upon a 12 mL application volume at a rate of 187 liters per hectare (L/ha). Formulated compounds were applied to the plant material with an overhead Mandel track sprayer equipped with 8002E nozzles calibrated to deliver 187 L/ha over an application area of 0.503 square meters at a spray height of 18 inches (43 cm) above the average plant canopy height. Control plants were sprayed in the same manner with the solvent blank.
# The treated plants and control plants were placed in a greenhouse as described above and watered by subirrigation to prevent wash-off of the test compounds. After 21 d, the condition of the test plants as compared with that of the untreated plants was determined visually and scored on a scale of 0 to 100 percent where 0 corresponds to no injury and 100 corresponds to complete kill. By applying the well-accepted probit analysis as described by J. Berkson in Journal of the American Statistical […], 48, 565 (1953) and by D. Finney in “Probit Analysis” Cambridge University Press (1952), the above data can be used to calculate GR20, GR50, GR80 and GR90 values, which are defined as growth reduction factors that correspond to the effective dose of herbicide required to kill or control 20 percent, 50 percent, 80 percent or 90 percent, respectively, of a target plant.
structure (smiles),measurement,setting,value
COC(=O)c1nc(-c2ccc3ccn(C)c3c2)c(F)c(N)c1Cl [Compound 1.10],Visual Growth Reduction (%) 10 Days After Application IPOHE,[1]; 3.96 Kg ai/ha,F (30-44)
COC(=O)c1nc(-c2ccc3sccc3c2)cc(N)c1Cl [Compound 3.05],Visual Growth Reduction (%) 10 Days After Application IPOHE,[1]; 4 Kg ai/ha,B (85-94)
COC(=O)c1nc(-c2ccc(Cl)c3ccoc23)c(F)c(N)c1Cl [Compound 2.24],"Visual Growth Reduction (%) 21 Days After Application, CIRAR","[2]; CIRAR, 17.5 g ai/ha",D (60-74)
same,"Visual Growth Reduction (%) 21 Days After Application, CIRAR","[2]; CIRAR, 35 g ai/ha",C (75-84)
same,"Visual Growth Reduction (%) 21 Days After Application, CIRAR","[2]; CIRAR, 70 g ai/ha",B (85-94)
same,"GR50, CIRAR","[2]; CIRAR, dose for 50 percent growth reduction, probit analysis",14 g ai/ha
same,"GR80, CIRAR","[2]; CIRAR, dose for 80 percent growth reduction, probit analysis",35 g ai/ha
same,"GR90, CIRAR","[2]; CIRAR, dose for 90 percent growth reduction, probit analysis",57 g ai/ha
same,"Visual Growth Reduction (%) 21 Days After Application, GALAP","[2]; GALAP, 17.5 g ai/ha",D (60-74)
same,"Visual Growth Reduction (%) 21 Days After Application, GALAP","[2]; GALAP, 35 g ai/ha",B (85-94)
same,"Visual Growth Reduction (%) 21 Days After Application, GALAP","[2]; GALAP, 70 g ai/ha",B (85-94)
same,"GR50, GALAP","[2]; GALAP, dose for 50 percent growth reduction, probit analysis",7 g ai/ha
same,"GR80, GALAP","[2]; GALAP, dose for 80 percent growth reduction, probit analysis",23 g ai/ha
same,"GR90, GALAP","[2]; GALAP, dose for 90 percent growth reduction, probit analysis",44 g ai/ha
same,"Visual Growth Reduction (%) 21 Days After Application, HORVS","[2]; HORVS, 17.5 g ai/ha",G (0-29)
same,"Visual Growth Reduction (%) 21 Days After Application, HORVS","[2]; HORVS, 35 g ai/ha",G (0-29)
same,"Visual Growth Reduction (%) 21 Days After Application, HORVS","[2]; HORVS, 70 g ai/ha",G (0-29)
same,"GR20, HORVS","[2]; HORVS, dose for 20 percent growth reduction, probit analysis",66 g ai/ha
same,"Visual Growth Reduction (%) 21 Days After Application, KCHSC","[2]; KCHSC, 17.5 g ai/ha",D (60-74)
same,"Visual Growth Reduction (%) 21 Days After Application, KCHSC","[2]; KCHSC, 35 g ai/ha",C (75-84)
same,"Visual Growth Reduction (%) 21 Days After Application, KCHSC","[2]; KCHSC, 70 g ai/ha",B (85-94)
same,"GR50, KCHSC","[2]; KCHSC, dose for 50 percent growth reduction, probit analysis",4 g ai/ha
same,"GR80, KCHSC","[2]; KCHSC, dose for 80 percent growth reduction, probit analysis",33 g ai/ha
same,"GR90, KCHSC","[2]; KCHSC, dose for 90 percent growth reduction, probit analysis",103 g ai/ha
same,"Visual Growth Reduction (%) 21 Days After Application, LAMPU","[2]; LAMPU, 17.5 g ai/ha",E (45-59)
same,"Visual Growth Reduction (%) 21 Days After Application, LAMPU","[2]; LAMPU, 35 g ai/ha",D (60-74)
same,"Visual Growth Reduction (%) 21 Days After Application, LAMPU","[2]; LAMPU, 70 g ai/ha",C (75-84)
same,"GR50, LAMPU","[2]; LAMPU, dose for 50 percent growth reduction, probit analysis",15 g ai/ha
same,"GR80, LAMPU","[2]; LAMPU, dose for 80 percent growth reduction, probit analysis",93 g ai/ha
same,"GR90, LAMPU","[2]; LAMPU, dose for 90 percent growth reduction, probit analysis",>140 g ai/ha
same,"Visual Growth Reduction (%) 21 Days After Application, MATCH","[2]; MATCH, 17.5 g ai/ha",G (0-29)
same,"Visual Growth Reduction (%) 21 Days After Application, MATCH","[2]; MATCH, 35 g ai/ha",G (0-29)
same,"Visual Growth Reduction (%) 21 Days After Application, MATCH","[2]; MATCH, 70 g ai/ha",G (0-29)
same,"GR50, MATCH","[2]; MATCH, dose for 50 percent growth reduction, probit analysis",114 g ai/ha
same,"GR80, MATCH","[2]; MATCH, dose for 80 percent growth reduction, probit analysis",>140 g ai/ha
same,"GR90, MATCH","[2]; MATCH, dose for 90 percent growth reduction, probit analysis",>140 g ai/ha
same,"Visual Growth Reduction (%) 21 Days After Application, PAPRH","[2]; PAPRH, 17.5 g ai/ha",D (60-74)
same,"Visual Growth Reduction (%) 21 Days After Application, PAPRH","[2]; PAPRH, 35 g ai/ha",D (60-74)
same,"Visual Growth Reduction (%) 21 Days After Application, PAPRH","[2]; PAPRH, 70 g ai/ha",C (75-84)
same,"GR50, PAPRH","[2]; PAPRH, dose for 50 percent growth reduction, probit analysis",24 g ai/ha
same,"GR80, PAPRH","[2]; PAPRH, dose for 80 percent growth reduction, probit analysis",52 g ai/ha
same,"GR90, PAPRH","[2]; PAPRH, dose for 90 percent growth reduction, probit analysis",77 g ai/ha
same,"Visual Growth Reduction (%) 21 Days After Application, SASKR","[2]; SASKR, 17.5 g ai/ha",D (60-74)
same,"Visual Growth Reduction (%) 21 Days After Application, SASKR","[2]; SASKR, 35 g ai/ha",B (85-94)
same,"Visual Growth Reduction (%) 21 Days After Application, SASKR","[2]; SASKR, 70 g ai/ha",B (85-94)
same,"GR50, SASKR","[2]; SASKR, dose for 50 percent growth reduction, probit analysis",3 g ai/ha
same,"GR80, SASKR","[2]; SASKR, dose for 80 percent growth reduction, probit analysis",28 g ai/ha
same,"GR90, SASKR","[2]; SASKR, dose for 90 percent growth reduction, probit analysis",95 g ai/ha
same,"Visual Growth Reduction (%) 21 Days After Application, SINAR","[2]; SINAR, 17.5 g ai/ha",B (85-94)
same,"Visual Growth Reduction (%) 21 Days After Application, SINAR","[2]; SINAR, 35 g ai/ha",A (95-100)
same,"Visual Growth Reduction (%) 21 Days After Application, SINAR","[2]; SINAR, 70 g ai/ha",A (95-100)
same,"GR50, SINAR","[2]; SINAR, dose for 50 percent growth reduction, probit analysis",6 g ai/ha
same,"GR80, SINAR","[2]; SINAR, dose for 80 percent growth reduction, probit analysis",13 g ai/ha
same,"GR90, SINAR","[2]; SINAR, dose for 90 percent growth reduction, probit analysis",19 g ai/ha
same,"Visual Growth Reduction (%) 21 Days After Application, TRZAS","[2]; TRZAS, 17.5 g ai/ha",G (0-29)
same,"Visual Growth Reduction (%) 21 Days After Application, TRZAS","[2]; TRZAS, 35 g ai/ha",G (0-29)
same,"Visual Growth Reduction (%) 21 Days After Application, TRZAS","[2]; TRZAS, 70 g ai/ha",F (30-44)
same,"GR20, TRZAS","[2]; TRZAS, dose for 20 percent growth reduction, probit analysis",52 g ai/ha
same,"Visual Growth Reduction (%) 21 Days After Application, VERPE","[2]; VERPE, 17.5 g ai/ha",F (30-44)
same,"Visual Growth Reduction (%) 21 Days After Application, VERPE","[2]; VERPE, 35 g ai/ha",D (60-74)
same,"Visual Growth Reduction (%) 21 Days After Application, VERPE","[2]; VERPE, 70 g ai/ha",C (75-84)
same,"GR50, VERPE","[2]; VERPE, dose for 50 percent growth reduction, probit analysis",30 g ai/ha
same,"GR80, VERPE","[2]; VERPE, dose for 80 percent growth reduction, probit analysis",66 g ai/ha
same,"GR90, VERPE","[2]; VERPE, dose for 90 percent growth reduction, probit analysis",100 g ai/ha
same,"Visual Growth Reduction (%) 21 Days After Application, VIOTR","[2]; VIOTR, 17.5 g ai/ha",E (45-59)
same,"Visual Growth Reduction (%) 21 Days After Application, VIOTR","[2]; VIOTR, 35 g ai/ha",D (60-74)
same,"Visual Growth Reduction (%) 21 Days After Application, VIOTR","[2]; VIOTR, 70 g ai/ha",C (75-84)
same,"GR50, VIOTR","[2]; VIOTR, dose for 50 percent growth reduction, probit analysis",24 g ai/ha
same,"GR80, VIOTR","[2]; VIOTR, dose for 80 percent growth reduction, probit analysis",78 g ai/ha
same,"GR90, VIOTR","[2]; VIOTR, dose for 90 percent growth reduction, probit analysis",>140 g ai/ha

# Reference: US20170050957A1, “4-AMINO-6-(HETEROCYCLIC)PICOLINATES AND 6-AMINO-2-(HETEROCYCLIC)PYRIMIDINE-4-CARBOXYLATES AND THEIR USE AS HERBICIDES” (Dow AgroSciences LLC, priority 2013, published 2017)
